Usually solubility stands for the dissolved amount per volume that the medium holds. Low values mean a poorly soluble substance, high ones a readily soluble substance.

Converted amounts (≈) assume the structure as drawn.

The target of the first data set is T1, glucocerebrosidase (Gcase) (Homo sapiens, UniProt P04062).
T1 sequence (P04062 40-536): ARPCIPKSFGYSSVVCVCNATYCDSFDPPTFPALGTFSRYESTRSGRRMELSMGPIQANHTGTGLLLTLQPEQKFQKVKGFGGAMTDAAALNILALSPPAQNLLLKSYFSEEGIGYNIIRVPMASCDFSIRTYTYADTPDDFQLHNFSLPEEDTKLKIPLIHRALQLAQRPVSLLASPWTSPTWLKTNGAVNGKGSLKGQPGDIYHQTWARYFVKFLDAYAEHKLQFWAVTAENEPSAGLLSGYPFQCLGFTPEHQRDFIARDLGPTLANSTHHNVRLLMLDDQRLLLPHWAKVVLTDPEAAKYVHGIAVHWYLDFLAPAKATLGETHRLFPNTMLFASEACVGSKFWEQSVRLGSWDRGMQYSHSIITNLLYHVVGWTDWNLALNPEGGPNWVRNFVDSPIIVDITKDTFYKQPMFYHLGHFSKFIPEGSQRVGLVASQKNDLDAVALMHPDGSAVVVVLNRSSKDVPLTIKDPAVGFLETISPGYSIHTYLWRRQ
The experiment in a line: Glucocerebrosidase (Gcase) activation assay, 4-methylumbelliferyl-beta-D-glucopyranoside substrate with saposin C. In kind it is biochemical. As to conditions: 0.1 μM test compound; 10 nM GCase, 100 nM saposin C, pH 4.7; read-out: Percent Gease Activation 0.1 μM Test Compound. As to the method: The ability of exemplary compounds to activate glucocerebrosidase (Gcase) was measured.
A 484 μL aliquot of a 1.0 mg/mL solution of phosphatidylserine (PS) (Sigma P7769) in chloroform was evaporated under a stream of nitrogen for 1 hour. The lipid film was dissolved over 4 minutes of vigorous vortexing in 40 mL of 176 mM K2HPO4/50 mM citric acid (pH 4.7) containing 7.5 μL of triton X-100, resulting in a mixed micellar preparation with a composition of 0.32 mM triton and 0.37 mol % PS. 4-Methylumbelliferyl-beta-D-glucopyranoside (ACROS-337025000) was dissolved in the micellar solution to a final concentration of 2 mM for use as the reaction substrate.
Test compounds were diluted to the desired concentrations with dimethylsulfoxide (DMSO) from 10 mM stocks, and 0.41 μL of the DMSO compound mixture was added to 100 μL of micellar solution containing 10 nM GCase and 100 nM saposin C (Enzo ALX-201-262-C050). Pre-incubation was allowed to occur for 30 minutes at room temperature, after which the reaction was initiated by combining 25 μL of substrate solution with 25 μL of compound/GCase/saposin mixture. The reaction proceeded for 15 minutes at room temperature and was stopped by adding 150 μL of 1M glycine, pH 12.5. The endpoint of the reaction was monitored by measuring fluorescence intensity (excitation: 365 nm; emission: 440 nm) on a SpectraMax i3 instrument (Molecular Devices). […]
As to `CCCCCOC1CCC(NC(=O)c2ncc3c(C)cc(C)nn23)CC1` (stereo not shown), the activation at 0.1 µM is 5 to 20%.

Still in this data set, the particulars now being: 1 μM test compound; 10 nM GCase, 100 nM saposin C, pH 4.7; read-out: Percent Gease Activation 1 μM Test Compound.
As to `CCCCCOC1CCC(NC(=O)c2ncc3c(C)cc(C)nn23)CC1` (stereo not shown), the activation at 1 µM is over 20%.

System in a further data set: not listed separately
The experiment in a line: Compound solubility in water. It is filed as physicochemical.
Conditions: not given
Take `CCCCCO[C@H]1CC[C@H](NC(=O)c2cnc3ccc(Cl)nn23)CC1`: the solubility was 17 µg/mL (≈ 46.6 µM).

For `Cc1cc(-c2ccc3ncn(C)c3c2)nn2c(C(=O)N[C@H](C3CC3)C(F)(F)F)cnc12` [(R)—N-(1-Cyclopropyl-2,2,2-trifluoroethyl)-8-methyl-6-(1-methyl-1H-benzo[d]imidazol-6-yl)imidazo[1,2-b]pyridazine-3-carboxamide], the concentration in solution (solubility) came to 1 µg/mL (≈ 2.33 µM).

`Cc1cc(-c2cncc(F)c2)nn2c(C(=O)NC(C3CC3)C(F)(F)F)cnc12` (stereo not shown) had a solubility of 1.3 µg/mL (≈ 3.3 µM).

`CCC(NC(=O)c1cnc2cc(C)c(Cl)nn12)c1ccccc1` (stereo not shown) had a solubility of 14.6 µg/mL (≈ 44.5 µM).

For `Cc1cc(-c2ccc(F)cc2C#N)nn2c(C(=O)N[C@H](C)C(F)(F)F)cnc12`, the solubility amounted to 1.9 µg/mL (≈ 4.86 µM).

As to `Cc1cc(-c2ccc3ocnc3c2)nn2c(C(=O)NC(C3CC3)C(F)(F)F)cnc12` (stereo not shown), the solubility turned out to be 0.2 µg/mL (≈ 0.481 µM).

Compound `Cc1cc(Cl)nn2c(C(=O)Nc3ccc4c(c3)CCC4)cnc12` gave a solubility of 0.3 µg/mL (≈ 0.918 µM).

In the case of `Cc1cc(-c2ccc(F)cc2)nn2c(C(=O)NC(C)C(F)(F)F)ncc12` (stereo not shown), the concentration in solution (solubility) came to 3.2 µg/mL (≈ 8.74 µM).

`CCCCCO[C@H]1CC[C@H](NC(=O)c2cnc3c(C)cc(C)nn23)CC1` yielded a solubility of 3.9 µg/mL (≈ 10.9 µM). This solubility and that of the compound before are within 1.5-fold of each other.

Turning to `Cc1cc(-c2cccc3ocnc23)nn2c(C(=O)NC(C3CC3)C(F)(F)F)cnc12` (stereo not shown), the solubility was determined as 1.6 µg/mL (≈ 3.85 µM).

In turn, `CCCCCCOC1CCC(NC(=O)c2cnc3cc(C)c(Cl)nn23)CC1` (stereo not shown) showed a solubility of 16.8 µg/mL (≈ 42.8 µM).

For `C#CC(NC(=O)c1ncc2c(C)cc(-c3cccc(F)c3)nn12)C(F)(F)F` (stereo not shown) [2-(3-Fluorophenyl)-4-methyl-N-(1,1,1-trifluorobut-3-yn-2-yl)imidazo[1,5-b]pyridazine-7-carboxamide], the solubility came to 0.7 µg/mL (≈ 1.86 µM).

`Cc1cc2ncc(C(=O)Nc3ccc4c(c3)CCC4)n2nc1Cl` gave a solubility of 1.5 µg/mL (≈ 4.59 µM).

Consider `Cc1cc2ncc(C(=O)NC3CCCc4ccccc43)n2nc1Cl` (stereo not shown), for which the solubility was 3.6 µg/mL (≈ 10.6 µM).

`CCCCCCOC1CCC(NC(=O)c2cnc3c(C)cc(Cl)nn23)CC1` (stereo not shown): the solubility turned out to be 3.1 µg/mL (≈ 7.89 µM).

Regarding `Cc1cc(-c2ccc(F)o2)nn2c(C(=O)NC(C3CC3)C(F)(F)F)cnc12` (stereo not shown), the concentration in solution (solubility) came to 0.6 µg/mL (≈ 1.57 µM). Against the preceding compound, the solubility is about 5.2-fold lower.

In turn, `Cc1cc(-c2ccc(F)cc2C#N)nn2c(C(=O)NC(C3CC3)C(F)(F)F)cnc12` (stereo not shown) showed a solubility of 0.7 µg/mL (≈ 1.68 µM).

`Cc1cc(-c2ccc3ocnc3c2)nn2c(C(=O)N[C@@H](C)C(F)(F)F)cnc12` came in with a solubility of 1.2 µg/mL (≈ 3.08 µM).

`Cc1cc(-c2cccc(F)c2)nn2c(C(=O)NC(C)C(F)(F)F)cnc12` (stereo not shown) showed a solubility of 1.9 µg/mL (≈ 5.19 µM).

As to `Cc1cc(C)c2cnc(C(=O)Nc3ccc4c(c3)CCC4)n2n1`, the solubility is 2.1 µg/mL (≈ 6.85 µM).

`Cc1cc(-c2cccc(F)c2)nn2c(C(=O)N[C@H](C3CC3)C(F)(F)F)ncc12` [(R)—N-(1-Cyclopropyl-2,2,2-trifluoroethyl)-2-(3-fluorophenyl)-4-methylimidazo[1,5-b]pyridazine-7-carboxamide]: the solubility was determined as 0.2 µg/mL (≈ 0.51 µM).

The compound `Cc1cc(C)c2ncc(C(=O)Nc3ccc4c(c3)CCC4)n2n1` registered a solubility of 0.9 µg/mL (≈ 2.94 µM).

Consider `Cc1cc(-c2cccc(F)c2)nn2c(C(=O)NC(C)(C)C3CC3)ncc12`, for which the solubility was 8 µg/mL (≈ 22.7 µM). This solubility is about 8.9-fold higher than that of the compound before.

Compound `Cc1cc(N2CCC(F)(F)C2)nn2c(C(=O)NC(C3CC3)C(F)(F)F)cnc12` (stereo not shown) showed a solubility of 8.2 µg/mL (≈ 20.3 µM).

For `Cc1cc(-c2cccc(F)c2)nn2c(C(=O)NC(C)(C)C3CC3)cnc12`, the solubility was 1.9 µg/mL (≈ 5.39 µM).

`Cc1cc(C)c2cnc(C(=O)NC(C)(C)C3CC3)n2n1` came in with a solubility of 24 µg/mL (≈ 88.1 µM).

`Cc1cc(-c2ccc(F)cc2)nn2c(C(=O)N[C@@H](C)C3CC3)ncc12` had a solubility of 6.9 µg/mL (≈ 20.4 µM). This solubility is about 3.5-fold lower than that of the compound before.

`Cc1cc(-c2cncc(Cl)c2)nn2c(C(=O)N[C@H](C3CC3)C(F)(F)F)cnc12` showed a solubility of 0.3 µg/mL (≈ 0.732 µM).

In turn, `Cc1cc(-c2cccc(C#N)c2)nn2c(C(=O)NC(C3CC3)C(F)(F)F)cnc12` (stereo not shown) registered a solubility of 0.2 µg/mL (≈ 0.501 µM).
